Measurements published in US3954985A, “Method for inhibiting bacterial growth with certain selected 3-chloro-tetrahydro-1,3-oxazines or oxazolidines” (INTERx Research Corporation, priority 1975, dated 1976).

Key:
[1] = test system: Staph. epidermidis ATCC 12228; experiment: Bactericidal endpoint (time for complete sterilization), ATCC 12228; assay type: cell-based
Description: (§1) The procedure employed to determine the antibacterial activity of 3-chloro-2,2,4,4-tetramethyl-tetrahydro1,3-oxazolidine and 3-chloro-2,2-[spiro-1'-methyl-4'-piperidinyl]-4,4-dimethyl-1,3-oxazolidinewas based primarily on a modification of the serial dilution method of analysis. However, instead of determining the minimum inhibitory concentration parameters for the compound investigated, applicants alternatively chose to determine the bactericidal endpoint for a given concentration of the compound investigated. Consequently, applicants' studies were established to determine the time required for complete sterilization of the micro-organism tested, when exposed to a given concentration of the compound investigated.
(§2) A stock solution of each compound identified above was prepared using an appropriate buffered solution.
(§3) For screening in the absence of a denaturing agent (e.g., horse serum) an equal volume of distilled water and the resulting solution was subjected to the screen.
(§4) For screening in the presence of a denaturing agent, a volume of the stock solution was diluted using an equal volume of 10% horse serum. When necessary, the final solution was adjusted to the desired pH using 1N HCl and the solution was permitted to stand at room temperature for thirty minutes prior to the screening procedure.
(§5) To 5 ml of the stock solution being evaluated, there was added 0.2 ml of an overnight broth culture containing the particular micro-organism being investigated (see above). At time intervals of 0.5, 1, 2, 3, 4, 5, . . . minutes, a loop of this suspension was subcultured into 5 ml of a sterile nutrient broth. All the samples were then incubated at 37°C for seven days with daily observation for evidence of bacterial growth. The time interval reported is for that sample in which no bacterial growth was observed after the incubation period.

E. coli ATCC 10536 = experiment: Bactericidal endpoint (time for complete sterilization), ATCC 10536; assay type: cell-based
Description: as §1, §2, §3, §4, §5

[2] = test system: Kleb. pneumoniae ATCC 10031; experiment: Bactericidal endpoint (time for complete sterilization), ATCC 10031; assay type: cell-based
Description: as §1, §2, §3, §4, §5

[3] = test system: Pseud. aeruginosa ATCC 9027; experiment: Bactericidal endpoint (time for complete sterilization), ATCC 9027; assay type: cell-based
Description: as §1, §2, §3, §4, §5

Staph. aureus ATCC 6538 = experiment: Bactericidal endpoint (time for complete sterilization), ATCC 6538; assay type: cell-based
Description: as §1, §2, §3, §4, §5

[4] = test system: Bord. bronchiseptica ATCC 4617; experiment: Bactericidal endpoint (time for complete sterilization), ATCC 4617; assay type: cell-based
Description: as §1, §2, §3, §4, §5

[5] = Stability analysis in buffered solution (half-life); assay type: physicochemical
[6] = 0.1M Na2B4O7 pH 8.8, H2O, 8.13 × 10^-3 M (1333 ppm)
[7] = 0.1M Na2B4O7 pH 8.8, Serum, 8.13 × 10^-3 M (1333 ppm)
[8] = 0.1M NaH2PO4 pH 7.00, H2O, 8.92 × 10^-3 M (1463 ppm)
[9] = 0.1M NaH2PO4 pH 7.00, Serum, 8.92 × 10^-3 M (1463 ppm)
[10] = 0.1M NaOAc pH 4.6, H2O, 8.26 × 10^-3 M (1355 ppm)
[11] = 0.1M NaOAc pH 4.6, Serum, 8.26 × 10^-3 M (1355 ppm)

half-life at 1520 µM ([5]; 0.1 M Na2B4O7 pH 9.3, 40 °C, initial concentration 1.52 × 10^-3 M): ~5 h
half-life at 2490 µM ([5]; 0.1 M Na2B4O7 pH 9.3, 40 °C, initial concentration 2.49 × 10^-3 M): ~4.6 h
half-life at 5980 µM ([5]; 0.1 M Na2B4O7 pH 9.3, 40 °C, initial concentration 5.98 × 10^-3 M): ~3.3 h
half-life at 1680 µM ([5]; 0.1 M NaH2PO4 pH 7.0, 40 °C, initial concentration 1.68 × 10^-3 M): ~70 h
half-life at 3050 µM ([5]; 0.1 M NaH2PO4 pH 7.0, 40 °C, initial concentration 3.05 × 10^-3 M): ~54 h
half-life at 6700 µM ([5]; 0.1 M NaH2PO4 pH 7.0, 40 °C, initial concentration 6.70 × 10^-3 M): ~54 h
half-life at 1880 µM ([5]; 0.1 M NaOAc pH 4.6, 40 °C, initial concentration 1.88 × 10^-3 M): 2.2 h
half-life at 2590 µM ([5]; 0.1 M NaOAc pH 4.6, 40 °C, initial concentration 2.59 × 10^-3 M): 2.2 h
half-life at 5470 µM ([5]; 0.1 M NaOAc pH 4.6, 40 °C, initial concentration 5.47 × 10^-3 M): 2.6 h
half-life at 6230 µM ([5]; H2O, initial concentration 6.23 × 10^-3 M): ~58 h
Compound: CC1(C)COC(C)(C)N1Cl [3-chloro-2,2,4,4-tetramethyl-tetrahydro-1,3-oxazolidine]
Germicidal activity time, 12228 [1, 6]: > 5 min
Germicidal activity time, 12228 [1, 7]: > 10 min
Germicidal activity time, 12228 [1, 8]: 1 min
Germicidal activity time, 12228 [1, 9]: 6 min
Germicidal activity time, 12228 [1, 10]: 0.5 min
Germicidal activity time, 12228 [1, 11]: > 10 min
Germicidal activity time, 10536 (E. coli ATCC 10536; [6]): 2 min
Germicidal activity time, 10536 (E. coli ATCC 10536; [7]): 4 min
Germicidal activity time, 10536 (E. coli ATCC 10536; [8]): 0.5 min
Germicidal activity time, 10536 (E. coli ATCC 10536; [9]): 3 min
Germicidal activity time, 10536 (E. coli ATCC 10536; [10]): 0.5 min
Germicidal activity time, 10536 (E. coli ATCC 10536; [11]): 3 min
Germicidal activity time, 10031 [2, 6]: 4 min
Germicidal activity time, 10031 [2, 7]: 9 min
Germicidal activity time, 10031 [2, 8]: 0.5 min
Germicidal activity time, 10031 [2, 9]: 5 min
Germicidal activity time, 10031 [2, 10]: 0.5 min
Germicidal activity time, 10031 [2, 11]: > 10 min
Germicidal activity time, 9027 [3, 6]: 2 min
Germicidal activity time, 9027 [3, 7]: 4 min
Germicidal activity time, 9027 [3, 8]: 1 min
Germicidal activity time, 9027 [3, 9]: 7 min
Germicidal activity time, 9027 [3, 10]: 0.5 min
Germicidal activity time, 9027 [3, 11]: 4 min
Germicidal activity time, 6538 (Staph. aureus ATCC 6538; [6]): > 5 min
Germicidal activity time, 6538 (Staph. aureus ATCC 6538; [7]): > 10 min
Germicidal activity time, 6538 (Staph. aureus ATCC 6538; [8]): 3 min
Germicidal activity time, 6538 (Staph. aureus ATCC 6538; [9]): > 10 min
Germicidal activity time, 6538 (Staph. aureus ATCC 6538; [10]): 0.5 min
Germicidal activity time, 6538 (Staph. aureus ATCC 6538; [11]): > 10 min
Germicidal activity time, 4617 [4, 6]: 3 min
Germicidal activity time, 4617 [4, 7]: 8 min
Germicidal activity time, 4617 [4, 8]: 1 min
Germicidal activity time, 4617 [4, 9]: > 10 min
Germicidal activity time, 4617 [4, 10]: 0.5 min
Germicidal activity time, 4617 [4, 11]: 6 min
